The test system of the test is patients with mild-to-moderate AD. In words: Example D: EEG and evoked response potentials. Format: in vivo, human. On the procedure:
Exploratory pharmacodynamic endpoints (Cogstate tests and EEG/evoked response potential [ERP] biomarkers) were evaluated at screening (practice sessions) and baseline visits, and on Day 28±1. While this study was not powered to detect PD effects of small to moderate ESs, the study sample size provided approximately 80% power to detect a large ES of 0.97 for these endpoints using a significance level of 0.10.
Brain activity was measured at rest using EEG, and during presentation of auditory stimuli using ERPs. The following EEG and ERP parameters were examined because of their sensitivities in detecting brain activity abnormalities at rest and during cognitive processing in patients with AD (Dierks T, Ihl R, Frolich L, Maurer K. Psychiatry Res. 1993; 50(3):151-162; Hedges D, Janis R, Mickelson S, Keith C, Bennett D, Brown B L. Clin EEG Neurosci. 2016; 47(1):48-55; Pekkonen E. Audiol Neurootol. 2000; 5(3-4):216-224): • Resting state power in the delta, theta, alpha, beta and gamma frequency bands measured by EEG activity during eyes open and eyes closed conditions (3 minutes each). • ERP markers (approximately 45 minutes) • Mismatch negativity (MMN; sensory gating/change detection)—amplitude and latency • P300-P3a and P3b (attention and working memory updating)—amplitude and latency • 40 Hz auditory steady-state response (ASSR; gamma oscillations and synchrony)—gamma-band evoked power and phase locking
EEG and ERP markers were quantified using the following paradigms: • Resting state paradigm (6 minutes): EEGs were recorded while patients were sitting with their eyes open (3 minutes) and closed (3 minutes) for frequency band-power analyses in the delta, theta, alpha, beta, and gamma frequency bands. Primary dependent measure was mean normalised power at Cz electrode in the eyes open and closed conditions. • Passive auditory oddball paradigm (23 minutes): Patients were instructed to ignore auditory stimuli while viewing a silent movie. Patients listened to a pseudorandom sequence of 85 dB tones (5 msec rise/fall times, 500 msec stimulus onset asynchrony); 85% were standards (50 msec, 1 kHz) and 15% were deviants that differed in both duration and pitch (125 msec, 1.5 kHz). Event-related potentials were generated in response to standard and deviant waveforms. Deviant minus standard difference waves were generated. The primary dependent measures were MMN amplitude and latency at Fz and FCComp electrodes (an average of frontal electrodes). • 40 Hz ASSR paradigm (8 minutes): Gamma steady-state responses were assessed in response to 1 ms 85 dB white noise clicks presented in 500 ms trains at a frequency of 40 Hz, with an inter-train interval of 1 second. A total of 500 click trains were presented. The primary dependent measure was gamma-band—evoked power and gamma phase locking at Fz and FCComp electrodes. • Active auditory oddball paradigm (11 minutes): Patients listened to a pseudorandom sequence of 85 dB tones (5 msec rise/fall times, 1500 msec stimulus onset asynchrony); 80% were standards (50 msec, 1 kHz) and 20% were targets (500 msec, 0.5 kHz). Patients were instructed to press a button when they heard target stimuli. ERPs were generated in response to target tones (P3b). The primary dependent measures were P3b amplitude and latency at CPComp electrodes (an average of central and parietal electrodes).
Patient data were collected from a 64-electrode cap onto a qualified and validated study system operated by site personnel who were specifically trained and certified for the study. The EEGs obtained at each patient visit were reviewed qualitatively by the study EEG expert (who remained blinded to dose allocation) and feedback was provided directly to the relevant site personnel on an ongoing basis and within 2 days of the assessment, to minimise issues from inter-site variability and to ensure the highest possible levels of consistency and reproducibility with respect to the EEG procedures. […]

Results on one molecule are retold here after US20240165097A1, “PHARMACEUTICAL COMPOSITION FOR THE TREATMENT OF ALZHEIMER'S DISEASE OR DEMENTIA” (Heptares Therapeutics Limited, priority 2021, published 2024).

Turning to `CCOC(=O)N1C2CCC1CC(N1CCC3(CC1)CNC(=O)C3)C2` (stereo not drawn) [HTL0018318, ethyl 3-(3-oxo-2,8-diazaspiro[4.5]dec-8-yl)-8-azabicyclo[3.2.1]octane-8-carboxylate], under “5 mg, Day 28”, the “MMN amplitude at Fz electrode, ES” value is on record as −0.84; the “MMN amplitude at Fz electrode, LSM difference from placebo” value is reported as −0.82 uV; the “peak P3b latency at CPComp electrodes, ES” value was −0.81; the “peak P3b latency at CPComp electrodes, LSM difference from placebo” value is -38 ms. Where the note is “15 mg, Day 28”, the “MMN amplitude at Fz electrode, ES” value is given as −0.64; the “MMN amplitude at Fz electrode, LSM difference from placebo” value is recorded as −0.63 uV; the “P3a amplitude at Fz electrode, ES” value was −0.73; the “P3a amplitude at Fz electrode, LSM difference from placebo” value was −0.84 uV. For the setting “15 mg, Day 28”, the “delta power at Cz electrode, eyes open, ES” value is recorded as 0.75; the “delta power at Cz electrode, eyes open, LSM difference from placebo” value is given as 3.8; the “peak P3b latency at CPComp electrodes” value is given as “no significant decrease”. For the same molecule, for the setting “across all 3 doses”, the “P3b mean amplitude at CPComp electrodes, ESs” value is 0.22-0.44. For the setting “all HTL0018318 doses”, the “MMN, mean ES” value worked out at 0.6; the “P3b amplitude, ES” value was determined as 0.33; the “P3b latency, ES” value was found to be 0.42; the “eyes open delta power, mean ES” value worked out at 0.52. Where the note is “all doses”, the “peak MMN latency” value was “No statistically significant improvements”. Further, the “40 Hz ASSR gamma-band evoked power or phase locking at Fz electrode” value (any HTL0018318 dose) was “no significant effects”.
